Results as given in PMC8453745, “Human Mass Balance and Metabolite Profiling of [^14C]‐Pamiparib, a Poly (ADP‐Ribose) Polymerase Inhibitor, in Patients With Advanced Cancer” (Clinical Pharmacology in Drug Development, 2021).
Where “and” joins values, the source holds several entries; their conditions need not be identical. Equal entries are not always repeated. Where two headings read alike, the source gives them in different places.

Assays:
[1] = tested on: PARP2; set-up: method as in PMID 33264017; conditions: read-out: PARP2 inhibition IC50; cited from earlier work
[2] = tested on: CYP3A; assay: CYP450 phenotyping in HLMs with CYP3A inhibitor ketoconazole; assay type: in vitro ADME, human; conditions: 90‐minute HLM incubation with CYP3A4 inhibitor ketoconazole (1 μM)
Experimental: (§1) Metabolic stability in human liver microsomes (HLMs) and cytochrome P450 (CYP450) phenotyping assays were conducted in 3D BioOptima (Suzhou, China) using validated methodology, [13] to determine the intrinsic clearance and enzymes responsible for metabolism of pamiparib. HLMs for microsome stability was from BD Biosciences (Woburn, New York). For phenotyping, HLMs and recombinant P450 (rCYP) were from Corning (Woburn, New York). Pamiparib (1 μM) was incubated with pooled HLM (0.5 mg/mL), NADPH (1 mM), and MgCl2 (3 mM) terminated at 0, 5, 15, 30, 60, and 90 minutes. The intrinsic clearance was calculated as 0.693/(t1/2 × HLM concentration), where t1/2 is the half‐life of pamiparib determined in HLMs. For phenotyping in HLMs, pamiparib (1 μM) was incubated in the absence or presence of isoform‐selective inhibitors: 0.2 μM α‐naphthoflavone for CYP1A2, 2 μM clopidogrel for CYP2B6, 16 μM montelukast for CYP2C8, 10 μM sulfaphenazole for CYP2C9, 30 μM nootkatone for CYP2C19, 2 μM quinidine for CYP2D6, and 1 μM ketoconazole for CYP3A. The following isoform‐selective probe substrates served as positive controls: 40 μM phenacetin for CYP1A2, 100 μM bupropion for CYP2B6, 2 μM amodiaquine for CYP2C8, 5 μM diclofenac for CYP2C9, 40 μM S‐mephenytoin for CYP2C19, 5 μM dextromethorphan for CYP2D6, and 2 μM midazolam for CYP3A4. […] Pamiparib, M1, and M2 were analyzed by LC‐MS/MS.

[3] = metabolite profiling in plasma (radioprofiling, LC‐MS); assay type: in vivo, human
Experimental: Total radioactivity concentrations of [^14C]‐pamiparib in whole blood, plasma, urine, and feces were determined by liquid scintillation counting (LSC). Radioactivity in each sample was measured for 5 minutes using a Packard Tri‐Carb liquid scintillation counter model 2100TR, 2900TR, or 3100TR (Canberra Packard, Pangbourne, Berks, Australia) with the facilities for computing quench‐corrected disintegrations per minute. Metabolite identification in plasma, urine, and feces was conducted by LC‐MS. Quantitation of the metabolites present in plasma, urine, and feces was based on the profiles of radioactivity. The limit of quantitation for radioactivity in plasma, urine, and feces was set at 1% of each chromatographic analysis (run) and 10 counts per minute (cpm) peak height; therefore, radioactive peaks that were <1% of the total run or <10 cpm peak height were reported as not detected. In addition, pamiparib and standards were reported, regardless of the percentage of run or peak height.
For metabolite profiling in plasma, ≈1.9 to 2.8 g of each plasma sample collected 0.5, 1, 2, 6, 12, and 24 hours postdose was extracted twice with 6 mL of 0.1% formic acid in acetonitrile (ACN). Duplicate aliquots were analyzed by LSC to determine extraction recoveries, which ranged from 77.4% to 98.5%. The combined supernatants were evaporated to dryness under nitrogen and reconstituted in 2:1 reverse osmosis water:methanol (MeOH). Duplicate aliquots were analyzed by LSC to determine reconstitution recoveries, which ranged from 89.3% to 115%. The reconstituted samples were analyzed by LC‐MS, with eluent fractions collected at 10‐second intervals into 96‐well plates containing solid scintillant. Radioactivity in each well was determined using TopCount analysis, and radiochemical profiles were generated based on radioactivity counts.
Metabolic profiling was performed on plasma, urine, and feces samples using LC‐MS. Shimadzu/Nexera LC‐30AD pumps and Shimadzu/Prominence DGU‐20A5R degasser were used with Shimadzu/Prominence controller CBM‐20A. The high‐pressure liquid chromatograph (HPLC) was equipped with an autoinjector (Shimadzu/Nexera SIL‐30ACMP) set at 10°C and a fraction collector (Leap Technologies PAL HTC‐xt) set at 15°C. Thermo Fisher Scientific Q Exactive was the mass spectrometer system.

[4] = biological target: T1, CYP2C8 (Homo sapiens, UniProt P10632); assay: CYP450 phenotyping in HLMs with CYP2C8 inhibitor montelukast; assay type: in vitro ADME; conditions: 90‐minute HLM incubation with CYP2C8 inhibitor montelukast (16 μM)
T1 construct: tissue Corning (Woburn, New York); host or cells: pooled human liver microsomes
T1 sequence (P10632 1-490): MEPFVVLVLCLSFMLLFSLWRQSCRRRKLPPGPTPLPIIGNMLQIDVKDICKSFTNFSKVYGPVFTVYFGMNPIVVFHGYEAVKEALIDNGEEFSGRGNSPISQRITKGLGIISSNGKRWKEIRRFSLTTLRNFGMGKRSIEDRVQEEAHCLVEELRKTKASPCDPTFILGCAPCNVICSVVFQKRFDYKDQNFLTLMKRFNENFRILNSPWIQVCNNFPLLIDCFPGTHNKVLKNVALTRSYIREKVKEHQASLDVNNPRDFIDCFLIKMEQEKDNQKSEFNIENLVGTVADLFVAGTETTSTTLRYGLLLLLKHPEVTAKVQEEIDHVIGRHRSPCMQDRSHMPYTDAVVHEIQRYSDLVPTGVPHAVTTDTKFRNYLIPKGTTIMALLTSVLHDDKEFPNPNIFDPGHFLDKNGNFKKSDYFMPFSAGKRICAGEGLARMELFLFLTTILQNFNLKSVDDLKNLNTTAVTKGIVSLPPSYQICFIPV
Experimental: as §1

[5] = metabolic stability in human liver microsomes; assay type: in vitro ADME; conditions: human, pooled human liver microsomes, 1 μM, 0.5 mg/mL HLM, NADPH
Experimental: (§2) Metabolic stability in human liver microsomes (HLMs) and cytochrome P450 (CYP450) phenotyping assays were conducted in 3D BioOptima (Suzhou, China) using validated methodology, [13] to determine the intrinsic clearance and enzymes responsible for metabolism of pamiparib. HLMs for microsome stability was from BD Biosciences (Woburn, New York). For phenotyping, HLMs and recombinant P450 (rCYP) were from Corning (Woburn, New York). Pamiparib (1 μM) was incubated with pooled HLM (0.5 mg/mL), NADPH (1 mM), and MgCl2 (3 mM) terminated at 0, 5, 15, 30, 60, and 90 minutes. The intrinsic clearance was calculated as 0.693/(t1/2 × HLM concentration), where t1/2 is the half‐life of pamiparib determined in HLMs. For phenotyping in HLMs, pamiparib (1 μM) was incubated in the absence or presence of isoform‐selective inhibitors: 0.2 μM α‐naphthoflavone for CYP1A2, 2 μM clopidogrel for CYP2B6, 16 μM montelukast for CYP2C8, 10 μM sulfaphenazole for CYP2C9, 30 μM nootkatone for CYP2C19, 2 μM quinidine for CYP2D6, and 1 μM ketoconazole for CYP3A. The following isoform‐selective probe substrates served as positive controls: 40 μM phenacetin for CYP1A2, 100 μM bupropion for CYP2B6, 2 μM amodiaquine for CYP2C8, 5 μM diclofenac for CYP2C9, 40 μM S‐mephenytoin for CYP2C19, 5 μM dextromethorphan for CYP2D6, and 2 μM midazolam for CYP3A4. […] Pamiparib (1 μM) was also incubated with rCYP1A2, rCYP2B6, rCYP2C8, rCYP2C9, rCYP2C19, rCYP2D6, or rCYP3A4 (50 pmol/mL) for 90 minutes with NADPH and MgCl2. The following isoform‐selective probe substrates served as positive controls: 1 μM phenacetin for CYP1A2, 2 μM bupropion for CYP2B6, 2 μM amodiaquine for CYP2C8, 2 μM diclofenac for CYP2C9, 10 μM S‐mephenytoin for CYP2C19, 1 μM dextromethorphan for CYP2D6, and 20 μM midazolam for CYP3A4. Pamiparib, M1, and M2 were analyzed by LC‐MS/MS.

[6] = tested on: human liver microsomes (HLMs); assay: metabolic stability in human liver microsomes; assay type: in vitro ADME; conditions: 90‐minute incubation in HLMs without CYP inhibitors
Experimental: as §2

[7] = cited from earlier work
[8] = 60‐mg single dose, n = 11, ref BGB‐290‐AU‐002, NCT02361723

## C[C@]12CCCN1CC1=NNC(=O)c3cc(F)cc4[nH]c2c1c34 [Pamiparib]
[1]
  IC50: 0.9 nM
[2]
  pamiparib remaining: 63.1%
[3]; based on high‐performance liquid chromatography‐liquid scintillation counting
  AUC0‐t, geometric mean: 19670 ngEq·h/mL
[3]; based on high‐performance liquid chromatography‐liquid solid chromatography
  Cmax, geometric mean: 1737 ngEq/mL
[3]; plasma, mean of patients
  mean percent of total radioactivity exposure in plasma (AUC0‐24h): 67.2% ± 10.2% and 67.2% and 67%
[3]; plasma, patient S101
  Percent of Total Radioactivity Concentration (AUC0‐24h): 78.0%
[3]; plasma, patient S102
  Percent of Total Radioactivity Concentration (AUC0‐24h): 72.6%
[3]; plasma, patient S103
  Percent of Total Radioactivity Concentration (AUC0‐24h): 63.2%
[3]; plasma, patient S104
  Percent of Total Radioactivity Concentration (AUC0‐24h): 55.0%
[4]
  pamiparib remaining: 82.9%
[5]
  half-life at 1 μM: 3 h
[5]; read-out: intrinsic clearance in HLM
  microsomal CLint at 1 μM: 7.9 µL/min/mg
[6]
  pamiparib remaining: 45.0%
[7]; [8]
  AUC0‐inf, geometric mean: 32 005 ng·h/mL
  Cmax, geometric mean: 1881 ng/mL
[7]; tested dose range 2.5‐120 mg
  pharmacokinetic profile (dose linearity): linear
[7]; up to 60 mg, patients
  tolerability: generally well tolerated
